Results taken from ChEMBL document CHEMBL1201862, “PubChem BioAssay data set” (2004).
Active and inactive are the calls of the source.

Legend:
Escherichia coli [1] = assay: microbe, parasite or virus in culture
[2] = HIV-1 AD8 envelope cell-cell fusion blockers – cherry-pick, dose response (AID 652062); format: functional, cell-based;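 also: luciferase signal from cell-cell fusion driven by HIV-1 clade B AD8 Env; potency is for inhibitors of fusion seen as a drop in luminescence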
[3] = blockers of HIV-1 ZM109 envelope-driven cell-cell fusion – HeLa effector, CEM target cells, luciferase, cherry-pick, dose response (AID 652058); format: functional, cell-based;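 also: luciferase signal from HIV-1 Env mediated cell-cell fusion of effector and target cells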
INS1 = assay: INS-1E survival protection against cytokine death – cell-based, luminescence, retest, dose response (AID 449756); format: functional; conditions: Rattus norvegicus;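 also: cell death triggered by IL-1 beta plus TNF-alpha plus IFN-gamma mixture; protective hits raise ATP signal compared with cytokine alone wells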
[4] = off-target signal loss in HeLa-CEM21 co-culture – HeLa F-luc CTL cells, cherry-picked, counter-screen for HIV-1 Env fusion inhibitor project, dose response (AID 652040); format: functional, cell-based;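 also: potency for signal decrease marking cytotoxic or nonspecific inhibition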
[5] = viability loss in CEM21 cells – cell-based, CellTiter-Glo luminescence, cherry-picked, cytotoxicity control for viral fusion inhibitor project, dose response (AID 652042); format: functional;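 also: potency for signal decrease meaning cytotoxicity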
[6] = blockers of HIV-1 envelope-mediated cell-cell fusion – cherry-pick, dose response (AID 652057); format: functional, cell-based
CAAX prenyl protease 2 = CAAX prenyl protease 2 (Homo sapiens, UniProt Q9Y256); assay: inhibition of Ras-converting CAAX protease Rce1 – biochemical, yeast membranes, quenched-peptide fluorescence, cherry-pick, dose response (AID 588849)
Chain of CAAX prenyl protease 2 (Q9Y256 whole entry, the tested form may be a part): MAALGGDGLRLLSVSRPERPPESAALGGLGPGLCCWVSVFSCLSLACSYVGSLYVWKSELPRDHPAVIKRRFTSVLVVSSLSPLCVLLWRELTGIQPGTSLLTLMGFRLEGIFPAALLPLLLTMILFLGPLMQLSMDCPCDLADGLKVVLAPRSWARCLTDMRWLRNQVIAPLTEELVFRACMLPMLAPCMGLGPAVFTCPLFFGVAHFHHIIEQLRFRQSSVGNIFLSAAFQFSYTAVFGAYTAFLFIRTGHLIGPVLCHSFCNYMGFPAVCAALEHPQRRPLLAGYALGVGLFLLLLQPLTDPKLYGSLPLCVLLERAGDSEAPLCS

[7] = biological target: Disintegrin and metalloproteinase domain-containing protein 17 (Homo sapiens, UniProt P78536); assay: inhibition of ADAM17 substrate cleavage – biochemical, quenched FRET substrate, counter-screen for ADAM10 exosite inhibitor project, dose response (AID 743253)
Chain of Disintegrin and metalloproteinase domain-containing protein 17 (P78536 whole entry, the tested form may be a part): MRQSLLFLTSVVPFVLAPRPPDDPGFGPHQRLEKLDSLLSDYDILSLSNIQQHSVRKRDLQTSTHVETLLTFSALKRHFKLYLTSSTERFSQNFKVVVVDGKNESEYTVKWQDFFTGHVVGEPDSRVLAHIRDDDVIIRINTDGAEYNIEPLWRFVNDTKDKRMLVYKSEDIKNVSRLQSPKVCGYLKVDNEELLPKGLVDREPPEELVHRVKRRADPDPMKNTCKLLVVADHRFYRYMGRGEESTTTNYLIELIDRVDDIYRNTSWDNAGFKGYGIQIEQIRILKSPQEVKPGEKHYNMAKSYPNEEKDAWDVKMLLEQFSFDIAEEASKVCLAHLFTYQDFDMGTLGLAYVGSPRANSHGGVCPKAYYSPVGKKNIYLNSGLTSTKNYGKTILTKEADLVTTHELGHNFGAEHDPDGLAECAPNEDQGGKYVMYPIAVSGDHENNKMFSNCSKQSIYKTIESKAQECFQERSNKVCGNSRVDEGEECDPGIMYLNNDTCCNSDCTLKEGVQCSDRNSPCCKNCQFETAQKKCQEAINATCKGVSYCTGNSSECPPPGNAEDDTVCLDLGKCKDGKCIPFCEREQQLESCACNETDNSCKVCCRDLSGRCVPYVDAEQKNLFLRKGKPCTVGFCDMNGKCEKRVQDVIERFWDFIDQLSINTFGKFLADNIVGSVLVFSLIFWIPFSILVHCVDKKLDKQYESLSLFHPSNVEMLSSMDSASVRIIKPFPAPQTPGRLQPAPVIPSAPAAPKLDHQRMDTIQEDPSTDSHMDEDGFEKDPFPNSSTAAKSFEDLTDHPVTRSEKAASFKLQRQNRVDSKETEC

[8] = potency of ADAM10 substrate cleavage blockers – biochemical, QFRET, dose response (AID 743254);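 also: ADAM10 enzyme with the DM2 quenched FRET peptide as substrate; EDANS fluorescence gain as the protease cuts the substrate; inhibitor potency against ADAM10 proteolytic activity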
Escherichia coli [9] = assay: microbe, parasite or virus in culture; remark: listed apart in the source
[10] = biological target: Latent membrane protein 1 (Human herpesvirus 4 (strain B95-8), UniProt P03230); assay: LMP1 TES1 pathway selectivity over dsRED control – imaging, HEK293T, dual-color eGFP/dsRED, cherry-picks, selectivity assay for LMP1 NF-kB inhibitor project, dose response (AID 588398); format: functional, cell-based
Chain of Latent membrane protein 1 (P03230 whole entry): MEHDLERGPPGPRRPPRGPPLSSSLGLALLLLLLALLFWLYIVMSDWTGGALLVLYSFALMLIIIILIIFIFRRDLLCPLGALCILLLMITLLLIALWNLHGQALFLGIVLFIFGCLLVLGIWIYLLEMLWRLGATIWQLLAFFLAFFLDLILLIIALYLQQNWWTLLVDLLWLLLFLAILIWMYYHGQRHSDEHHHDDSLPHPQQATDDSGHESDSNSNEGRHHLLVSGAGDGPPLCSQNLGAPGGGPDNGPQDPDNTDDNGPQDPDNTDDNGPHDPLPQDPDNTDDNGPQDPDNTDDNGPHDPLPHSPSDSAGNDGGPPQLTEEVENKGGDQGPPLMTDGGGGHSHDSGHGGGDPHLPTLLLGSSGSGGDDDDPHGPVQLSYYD

A-375 = assay: MITF: Counter assay: A375 proliferation Measured in Cell-Based System Using Plate Reader - 2084-03_Inhibitor_Dose_DryPowder_Activity. [Related pubchem assays (depositor defined):AID488944]; format: functional; conditions: Homo sapiens
[11] = viability of HCT116 lacking mutant beta-catenin – cell-based, human colon tumor, dose response (AID 1045); format: functional;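 also: HCT116 colon tumor cells with beta catenin knocked out; cells exposed to compound for 60 hours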
[12] = viability of PTEN-deleted HCT116 cells – cell-based, HCT116 PTEN knockout, dose response (AID 1047); format: functional;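 also: HCT116 colon tumor cells with PTEN knocked out; cells exposed to compound for 60 hours before readout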
[13] = biological target: T1, Microphthalmia-associated transcription factor (Homo sapiens, UniProt O75030); assay: reducers of TRPM1 reporter luminescence, concentration series – cell-based, SK-MEL-5, cherry-picked, set 3, MITF inhibitor project, dose response (AID 493073); format: functional;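 also: SK-MEL-5 melanoma cells with luciferase driven by the MITF target TRPM1 promoter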
T1 sequence (O75030 whole entry): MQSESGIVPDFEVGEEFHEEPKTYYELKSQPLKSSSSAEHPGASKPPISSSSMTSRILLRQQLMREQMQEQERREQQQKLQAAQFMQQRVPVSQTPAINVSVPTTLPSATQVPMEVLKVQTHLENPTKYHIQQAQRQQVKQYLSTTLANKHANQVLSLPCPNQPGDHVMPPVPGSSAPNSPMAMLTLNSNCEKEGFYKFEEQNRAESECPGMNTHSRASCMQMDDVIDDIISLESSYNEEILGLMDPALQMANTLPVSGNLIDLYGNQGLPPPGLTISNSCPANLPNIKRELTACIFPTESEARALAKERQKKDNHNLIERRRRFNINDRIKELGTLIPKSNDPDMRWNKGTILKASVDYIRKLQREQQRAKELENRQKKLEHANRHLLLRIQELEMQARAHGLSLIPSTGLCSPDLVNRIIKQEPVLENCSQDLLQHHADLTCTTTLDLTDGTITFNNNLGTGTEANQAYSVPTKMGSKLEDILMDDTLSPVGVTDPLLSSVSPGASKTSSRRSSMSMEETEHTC

CHO = CHO cell viability loss, potency – luminescence, cytotoxicity control for TLR9-MyD88 binding inhibitor project, dose response (AID 588339); format: functional, cell-based, hamster; conditions: Cricetulus griseus;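 also: CHO cells stably coexpressing TLR9 and MyD88 fusions from primary screen; compound exposure lasted 48 hours before viability readout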

In the case of `CO[C@H]1/C=C\O[C@@]2(C)Oc3c(C)c(O)c4c(O)c(c5c(c4c3C2=O)=NC2(CCN(CC(C)C)CC2)N=5)NC(=O)/C(C)=C\C=C/[C@H](C)[C@H](O)[C@@H](C)[C@@H](O)[C@@H](C)[C@H](OC(C)=O)[C@@H]1C`, the AC50 (Escherichia coli [1]) is reported as 15.9 µM (active).

With `COc1ccccc1NC(=O)CN(c1ccc(C23CC4CC(CC(C4)C2)C3)cc1)S(C)(=O)=O` the AC50 [2] was 8.59 µM (active), the AC50 [3] was 3.45 µM (active) and the AC50 (INS1) was 4.49 µM (active). For the same molecule, the AC50 [4] was 8.12 µM (active), the AC50 [5] was 47 µM (active) and the AC50 [6] was 4.53 µM (active). The AC50 (CAAX prenyl protease 2) was 40.9 µM (active), the IC50 [7] was > 69.5 µM (inactive) and the IC50 [8] was > 69.5 µM (inactive).

For `CCOC(=O)C(NC(C)=O)(Nc1ccc(F)cc1)C(F)(F)F` (centres undefined), the AC50 (Escherichia coli [9]) was 36.2 µM (active) and the AC50 (Escherichia coli [1]) was 74.8 µM (active).

In the case of `COCCN1Cc2cccc(C(=O)N3CCN(c4cc(C)ccc4C)CC3)c2C1=O`, the AC50 [10] is reported as 53.1 µM (active).

In the case of `Cn1ncc(Cl)c1C(=O)NCc1ccc(Cl)cc1`, the AC50 (Escherichia coli [9]) is reported as 22.7 µM (active).

For `CCCCN(C)CC(O)Cn1cc(/C=C/C(=O)c2cccs2)c2ccccc21` (centres undefined), the AC50 (A-375) was 40.9 µM (active), the EC50 [11] was 10.5 µM (active) and the EC50 [12] was 13.4 µM (active). For the same molecule, the AC50 [13] was 14.3 µM (active) and the IC50 (CHO) was 14.9 µM (inactive).
